{"source": "patent USRE37781E1", "about": "“Substituted cyclic carbonyls and derivatives thereof useful as retroviral protease inhibitors” (DuPont Pharmaceuticals Company, priority 1991, dated 2002)", "key": {"[1]": {"target": "single-chain tethered dimer of HIV protease (Human immunodeficiency virus 1, UniProt P04585)", "assay": "biochemical", "assay_type": "biochemical", "procedure": "HIV Protease Inhibition Assay—HPLC Method\nActive protease was prepared as described therein by extraction with 67% acetic acid, dilution 33-fold with water, dialysis against water and then against a “refolding buffer” consisting of 20 mM MES, 1 mM dithiothreitol and 10% glycerol. Protease was stored as a stock preparation at 10 uM in refolding buffer.\nSubstrate: Peptide of sequence: aminobenzoyl-Ala-Thr-His-Gln-Val-Tyr-Phe(NO2)-Val-Arg-Lys-Ala containing p-nitrophenylalanine, was prepared by solid phase synthesis as previously described Cheng et al., op.cit. Stock solutions of 2 mM substrate were prepared in DMSO.\nInhibitory compounds were dissolved in sufficient DMSO to make 3 mM stock solutions. All further dilutions were prepared in “assay buffer”: 1M NaCl, 50 mM MES, pH 5.5, 1 mM EDTA, 1 mM DTT, […] glycerol.\nEnzyme reaction: In a 2 ml screw-cap centrifuge tube were added 50 ul protease (final concentration 0.25 nM) and 0.1 ml inhibitory compound (final concentration […]). After 15 min preincubation at room temperature, the reaction was started with the addition of 0.05 ml substrate (final concentration 5 uM). Incubation was carried out at 30 C. for 1 hr. The reaction was stopped with 1 ml 0.1M ammonium hydroxide.\nHPLC measurement of product formation: The product (aminobenzoyl-Ala-Thr-His-Gln-Val-Tyr) was separated from substrate on a Pharmacia MonoQ anion exchange column. The injection volume was 0.2 ml. The mobile phases were: A (20 mM trisHCl, pH 9.0, 0.02% sodium Azide, 10% acetonitrile), B (20 mM tris HCl, pH 9.0, 0.02% sodium azide, 0.5M ammonium formate, 10% acetonitrile). The mobile phases were pumped at 1 ml/min, with a gradient from 0 to 30% B in 5 min, 100% B for 4 min to wash the column, and a re-equilibration for 4 min. The retention time of the product was 3.6 min. Detection with a Shimadzu model RF535 fluorescence monitor was at 330 nm (excitation) and 430 (emission)."}, "[2]": {"system": "HIV-1 (RF) in MT-2 cells", "assay": "microbe, parasite or virus in culture", "assay_type": "cell-based", "procedure,_shortened": "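HIV-1 laboratory strains (RF, MN, IIIB) grown in H9 cells in RPMI 1640 with 5% FCS; infections in MT-2 cells. Viral RNA quantified by hybridization with biotinylated gag/pol capture probes on streptavidin plates and alkaline phosphatase-conjugated reporter probes; BH10 gag-pol in vitro transcripts serve as RNA standards.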"}, "[3]": {"target": "T1, HIV protease (Human immunodeficiency virus type 1 group M subtype B, UniProt P04585)", "T1 construct": "plasmid containing HIV protease under the control of an inducible T7 promoter; made in house; host or cells: E. coli (inclusion bodies, T7 promoter)", "assay": "biochemical", "design": "species or system HIV-1", "procedure": "HIV Protease Inhibition Assay—Spectroscopic Method\nInclusion bodies were solubilized in 8M urea, 50 mM tris pH 8.0. Protease activity was recovered by dilution 20-fold into buffer containing 50 mM sodium acetate pH 5.5, 1 mM EDTA, 10% glycerol and 5% ethylene glycol. Enzyme was used at a final concentration of 1.0-10 ug/ml.\nStock solutions of 10 mM were prepared in DMSO.\nAll further dilutions were done in DMSO."}, "[4]": {"conditions": "Human immunodeficiency virus 1, MT2, Table 2A, read-out: IC90"}, "[5]": {"conditions": "Human immunodeficiency virus 1, MT2, second table headed Table 2A, read-out: IC90"}, "[6]": {"conditions": "second table headed Table 2A, read-out: Ki"}, "[7]": {"conditions": "Human immunodeficiency virus 1, MT2, Table 1c, read-out: IC90"}}, "note": "Read-outs that look alike come from different tables or passages of the source."}
{"smiles": "O=C1N(Cc2ccc(CO)cc2)CCC(O)C(Cc2ccccc2)N1Cc1ccc(CO)cc1", "note": "(stereo not drawn) [30N]", "values": [{"measurement": "Ki", "setting": "[1]; Table 2t, read-out: Ki", "value": "10 to 1000", "unit": "nM"}]}
{"smiles": "O=C1N(Cc2ccc3ccccc3c2)CC(O)C(Cc2ccccc2)N1Cc1ccc2ccccc2c1", "note": "(stereo not drawn) [30F]", "values": [{"measurement": "Ki", "setting": "[1]; Table 2t, read-out: Ki", "value": "> 1000", "unit": "nM"}]}
{"smiles": "O=C1N(Cc2ccccc2)CC(O)C(Cc2ccccc2)N1Cc1ccccc1", "note": "(stereo not drawn) [30U]", "values": [{"measurement": "Ki", "setting": "[1]; Table 2t, read-out: Ki", "value": "> 1000", "unit": "nM"}]}
{"smiles": "O=C1N(Cc2ccc(O)cc2)CC(O)C(Cc2ccccc2)N1Cc1ccc(O)cc1", "note": "(stereo not drawn) [30D]", "values": [{"measurement": "Ki", "setting": "[1]; Table 2t, read-out: Ki", "value": "> 1000", "unit": "nM"}]}
{"smiles": "O=C1N(Cc2ccccc2)CCC(O)C(Cc2ccccc2)N1Cc1ccccc1", "note": "(stereo not drawn) [30L]", "values": [{"measurement": "Ki", "setting": "[1]; Table 2t, read-out: Ki", "value": "> 1000", "unit": "nM"}]}
{"smiles": "N#CN=C1N(Cc2ccc([N+](=O)[O-])cc2)C(Cc2ccccc2)C(O)C(O)C(Cc2ccccc2)N1Cc1ccc([N+](=O)[O-])cc1", "note": "(stereo not drawn) [Example 1CB]", "values": [{"measurement": "IC90", "setting": "[2]; Human immunodeficiency virus 1, MT2", "value": "10 to 100", "unit": "µg/mL"}, {"measurement": "Ki", "setting": "[3]; Ki, Table 1c, cyclic guanidines", "value": "10 to 1000", "unit": "nM"}, {"measurement": "melting point", "value": 130.3, "unit": "°C"}]}
{"smiles": "O=S1(=O)N(Cc2ccc3ccccc3c2)CC(O)C(Cc2ccccc2)N1Cc1ccc2ccccc2c1", "note": "(stereo not drawn) [30I]", "values": [{"measurement": "Ki", "setting": "[1]; Table 2t, read-out: Ki", "value": "10 to 1000", "unit": "nM"}]}
{"smiles": "CC(C)=CCN1C(=O)N(CC=C(C)C)C(Cc2ccccc2)C(O)C(O)C1Cc1ccccc1", "note": "(stereo not drawn) [Example 2A]", "values": [{"measurement": "IC90", "setting": "[2]; [4]", "value": "< 10", "unit": "µg/mL"}, {"measurement": "IC90", "setting": "[2]; [5]", "value": "< 10", "unit": "µg/mL"}, {"measurement": "Ki", "setting": "[3]; Table 2A, read-out: Ki", "value": "< 10", "unit": "nM"}, {"measurement": "Ki", "setting": "[3]; [6]", "value": "< 10", "unit": "nM"}, {"measurement": "melting point", "value": 165.1, "unit": "°C"}]}
{"smiles": "N#CN=C1N(CC2CCCC2)C(Cc2ccccc2)C(O)C(O)C(Cc2ccccc2)N1CC1CCCC1", "note": "(stereo not drawn) [Example 1BV]", "values": [{"measurement": "IC90", "setting": "[2]; [7]", "value": "< 10", "unit": "µg/mL"}, {"measurement": "Ki", "setting": "[3]; Ki", "value": "< 10", "unit": "nM"}, {"measurement": "melting point", "value": 99.7, "unit": "°C"}]}
{"smiles": "N#CN=C1N(Cc2cccc(OCc3ccccc3)c2)C(Cc2ccccc2)C(O)C(O)C(Cc2ccccc2)N1Cc1cccc(OCc2ccccc2)c1", "note": "(stereo not drawn) [Example 1CA]", "values": [{"measurement": "IC90", "setting": "[2]; [7]", "value": "> 100", "unit": "µg/mL"}, {"measurement": "Ki", "setting": "[3]; Ki", "value": "10 to 1000", "unit": "nM"}, {"measurement": "melting point", "value": 75.2, "unit": "°C"}]}
{"smiles": "C=COCCN1C(=O)N(CCOC=C)C(Cc2ccccc2)C(O)C(O)C1Cc1ccccc1", "note": "(stereo not drawn) [Example 4D]", "values": [{"measurement": "Ki", "setting": "[1]", "value": "10 to 1000", "unit": "nM"}]}
{"smiles": "N#CN=C1N(Cc2ccc(N)cc2)C(Cc2ccccc2)C(O)C(O)C(Cc2ccccc2)N1Cc1ccc(N)cc1", "note": "(stereo not drawn) [Example 1CE]", "values": [{"measurement": "IC90", "setting": "[2]; [7]", "value": "< 10", "unit": "µg/mL"}, {"measurement": "Ki", "setting": "[3]; Ki", "value": "10 to 1000", "unit": "nM"}, {"measurement": "melting point", "value": 226.3, "unit": "°C"}]}
{"smiles": "O=C1NC(Cc2ccccc2)C(O)C(O)C(Cc2ccccc2)N1CC1CC1", "note": "(stereo not drawn) [Example 4X]", "values": [{"measurement": "Ki", "setting": "[1]; HIV protease inhibition, class symbols, read-out: Ki", "value": "10 to 1000", "unit": "nM"}]}
{"smiles": "O=S1(=O)N(Cc2ccccc2)CCC(O)C(Cc2ccccc2)N1Cc1ccccc1", "note": "(stereo not drawn) [30Q]", "values": [{"measurement": "Ki", "setting": "[1]; Table 2t, read-out: Ki", "value": "> 1000", "unit": "nM"}]}
{"smiles": "N#CN=C1N(Cc2ccccc2)C(Cc2ccccc2)C(O)C(O)C(Cc2ccccc2)N1Cc1ccccc1", "note": "(stereo not drawn) [Example 1BZ]", "values": [{"measurement": "IC90", "setting": "[2]; [7]", "value": "< 10", "unit": "µg/mL"}, {"measurement": "Ki", "setting": "[3]; Ki", "value": "10 to 1000", "unit": "nM"}, {"measurement": "melting point", "value": 94, "unit": "°C"}]}
{"smiles": "O=C1N(Cc2ccccc2)CC(O)C(Cc2ccccc2)N1Cc1ccccc1", "note": "(racemic) [30A]", "values": [{"measurement": "Ki", "setting": "[1]; Table 2t, read-out: Ki", "value": "> 1000", "unit": "nM"}]}
{"smiles": "C=CCN1C(=O)N(Cc2ccccc2)C(Cc2ccccc2)C(O)C(O)C1Cc1ccccc1", "note": "(stereo not drawn) [Example 2G]", "values": [{"measurement": "IC90", "setting": "[2]; [4]", "value": "< 10", "unit": "µg/mL"}, {"measurement": "IC90", "setting": "[2]; [5]", "value": "< 10", "unit": "µg/mL"}, {"measurement": "Ki", "setting": "[3]; Table 2A, read-out: Ki", "value": "< 10", "unit": "nM"}, {"measurement": "Ki", "setting": "[3]; [6]", "value": "< 10", "unit": "nM"}, {"measurement": "melting point", "value": 226.5, "unit": "°C"}]}
{"smiles": "O=C1N(Cc2ccc(OC(F)(F)F)cc2)C(Cc2ccccc2)C(O)C(O)C(Cc2ccccc2)N1Cc1ccc(OC(F)(F)F)cc1", "note": "(stereo not drawn) [Example 2L]", "values": [{"measurement": "IC90", "setting": "[2]; [4]", "value": "< 10", "unit": "µg/mL"}, {"measurement": "IC90", "setting": "[2]; [5]", "value": "< 10", "unit": "µg/mL"}, {"measurement": "Ki", "setting": "[3]; Table 2A, read-out: Ki", "value": "10 to 1000", "unit": "nM"}, {"measurement": "Ki", "setting": "[3]; [6]", "value": "10 to 1000", "unit": "nM"}, {"measurement": "melting point", "value": 136.8, "unit": "°C"}]}
{"smiles": "N#CN=C1N(Cc2cccc(O)c2)C(Cc2ccccc2)C(O)C(O)C(Cc2ccccc2)N1Cc1cccc(O)c1", "note": "(stereo not drawn) [Example 1CD]", "values": [{"measurement": "IC90", "setting": "[2]; [7]", "value": "< 10", "unit": "µg/mL"}, {"measurement": "Ki", "setting": "[3]; Ki", "value": "< 10", "unit": "nM"}, {"measurement": "melting point", "value": 124, "unit": "°C"}]}
{"smiles": "O=C1N(Cc2ccccc2)CCC(=NO)C(Cc2ccccc2)N1Cc1ccccc1", "note": "(stereo not drawn) [30T]", "values": [{"measurement": "Ki", "setting": "[1]; Table 2t, read-out: Ki", "value": "> 1000", "unit": "nM"}]}
{"smiles": "O=C1[C@@H](Cc2ccccc2)C[C@@H](O)[C@@H](Cc2ccccc2)N1Cc1ccccc1", "note": "[Example 25A]", "values": [{"measurement": "Ki", "setting": "[1]", "value": "> 1000", "unit": "nM"}]}
{"smiles": "O=C1N(Cc2ccc(F)c(C(F)(F)F)c2)C(Cc2ccccc2)C(O)C(O)C(Cc2ccccc2)N1Cc1ccc(F)c(C(F)(F)F)c1", "note": "(stereo not drawn) [Example 2K]", "values": [{"measurement": "IC90", "setting": "[2]; [4]", "value": "< 10", "unit": "µg/mL"}, {"measurement": "IC90", "setting": "[2]; [5]", "value": "< 10", "unit": "µg/mL"}, {"measurement": "Ki", "setting": "[3]; Table 2A, read-out: Ki", "value": "10 to 1000", "unit": "nM"}, {"measurement": "Ki", "setting": "[3]; [6]", "value": "10 to 1000", "unit": "nM"}, {"measurement": "melting point", "value": 167.2, "unit": "°C"}]}
{"smiles": "O=C1N(CC2CC2)CCC(O)C(Cc2ccccc2)N1CC1CC1", "note": "(stereo not drawn) [30O]", "values": [{"measurement": "Ki", "setting": "[1]; Table 2t, read-out: Ki", "value": "> 1000", "unit": "nM"}]}
